The test deals with indoleamine 2,3-dioxygenase (IDO) (Homo sapiens, UniProt P14902). Put plainly: HeLa cell-based indoleamine 2,3-dioxygenase (IDO) assay (kynurenine production, IFNγ-stimulated). The conditions noted are these: HeLa cells.
Setting [1] is: potency class, read-out: Patent Potency Hela IC50 A < 10 nM, B > 10 nM, C > 100 nM.
Where [2] appears, read: IFNγ 25 ng/mL, 48 hour incubation, read-out: IDO Hela IC50.

Read-outs that look alike come from different tables or passages of the source. Where only a bound is given, the exact number is not on record here.

Drawing on patent US11066392B2, “Inhibitors of indoleamine 2,3-dioxygenase and methods of their use” (BRISTOL-MYERS SQUIBB COMPANY, priority 2017, dated 2021), this text covers IC50 for 30 molecules.

The IC50 is the concentration needed to halve the response being measured.

Chain of indoleamine 2,3-dioxygenase (IDO) (P14902 whole entry): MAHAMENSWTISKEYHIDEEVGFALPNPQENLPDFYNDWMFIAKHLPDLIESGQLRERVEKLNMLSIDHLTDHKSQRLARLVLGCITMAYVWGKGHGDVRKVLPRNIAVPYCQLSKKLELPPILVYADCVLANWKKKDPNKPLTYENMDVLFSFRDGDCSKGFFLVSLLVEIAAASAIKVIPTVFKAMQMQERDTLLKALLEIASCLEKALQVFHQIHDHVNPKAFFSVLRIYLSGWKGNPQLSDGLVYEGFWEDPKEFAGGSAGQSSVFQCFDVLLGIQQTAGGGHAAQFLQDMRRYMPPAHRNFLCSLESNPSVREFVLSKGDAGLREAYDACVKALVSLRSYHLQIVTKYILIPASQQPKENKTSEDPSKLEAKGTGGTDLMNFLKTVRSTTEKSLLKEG

For `[2H]C([2H])([2H])Oc1ccc(C(=O)NC(CC)C2CCC(c3ccnc(OC)c3C(F)F)CC2)cn1` (single isomer, unassigned) [Example 66-2, N-(1-((1s,4s)-4-(3-(difluoromethyl)-2-methoxypyridin-4-yl)cyclohexyl)propyl)-6-(methoxy-d3)nicotinamide], the half-inhibitory concentration (IC50) under setting [1] was below 10 nM.

Turning to `CCC(NC(=O)c1ccc(OC)nc1)C1CCC(c2cccc(OC(F)F)n2)CC1` (single isomer, unassigned) [Example 48d, N-(1-(4-(6-(difluoromethoxy)pyridin-2-yl)cyclohexyl)propyl)-6-methoxynicotinamide], the IC50 under setting [1] was above 100 nM.

On to `CC[C@@H](NC(=O)c1ccc(OC)nc1)[C@H]1CC[C@@H](c2ccnc(F)c2C)CC1` (single isomer, unassigned) [Example 56b, N-(1-(4-(2-fluoro-3-methylpyridin-4-yl)cyclohexyl)propyl)-6-methoxynicotinamide], for which the IC50 under setting [2] amounted to 120 nM.

For `CCC(NC(=O)c1ccc(OC)nc1)C1CCC(c2ccnc(OC(F)F)c2)CC1` (single isomer, unassigned) [Example 30d, N-(1-(4-(2-(Difluoromethoxy)pyridin-4-yl)cyclohexyl)propyl)-6-methoxynicotinamide], the IC50 under setting [2] is 250 nM.

For `CCC(NC(=O)c1ccc(OC)nc1)C1CCC(c2ccnc3c(F)cc(F)cc23)CC1` (single isomer, unassigned) [Example 57b], under setting [1], the IC50 was below 10 nM.

`COC[C@H](NC(=O)c1ccc(OC)nc1)[C@H]1CC[C@@H](c2ccnc(OC)c2C(F)F)CC1` (single isomer, unassigned) [Example 51c, N-(1-(4-(3-(difluoromethyl)-2-methoxypyridin-4-yl)cyclohexyl)-2-methoxyethyl)-6-methoxynicotinamide]: the IC50 under setting [2] is 220 nM.

For the molecule `CCC(NC(=O)c1ccc(OC)nc1)C1CCC(c2ccnc3ccc(C(F)(F)F)cc23)CC1` (single isomer, unassigned) [Example 11a, 6-Methoxy-N-(1-((1s,4s)-4-(6-(trifluoromethyl)quinolin-4-yl)cyclohexyl)propyl)nicotinamide], under setting [2], the IC50 was 100 nM.

With `CC[C@@H](NC(=O)c1cnc(OC)nc1)[C@H]1CC[C@@H](c2ccnc3c(F)cccc32)CC1` (single isomer, unassigned) [Example 60a, N-(1-(4-(8-fluoroquinolin-4-yl)cyclohexyl)propyl)-2-methoxypyrimidine-5-carboxamide], the IC50 under setting [2] worked out at 820 nM.

On to `CCC(NC(=O)c1cnc(OC)nc1)C1CCC(c2ccnc3c(F)cc(F)cc23)CC1` (single isomer, unassigned) [Example 58d], for which the half-maximal inhibitory concentration (IC50) under setting [1] was below 10 nM.

As to `CCC(NC(=O)c1cnc(OC)nc1)C1CCC(c2ccnc3c(F)cc(F)cc23)CC1` (single isomer, unassigned) [Example 58c], the concentration for half-maximal inhibition (IC50) under setting [2] worked out at 360 nM.

On to `CCOC[C@@H](NC(=O)c1ccc(OC)nc1)[C@H]1CC[C@@H](c2ccnc3ccc(C(F)(F)F)cc32)CC1` (single isomer, unassigned) [Example 13b, N-(2-Ethoxy-1-(4-(6-(trifluoromethyl)quinolin-4-yl)cyclohexyl)ethyl)-6-methoxynicotinamide], for which, under setting [1], the concentration for half-maximal inhibition (IC50) was below 10 nM.

For the molecule `CCC(NC(=O)c1ccc(OC)nc1)C1CCC(c2cccc(C(F)(F)F)n2)CC1` (single isomer, unassigned) [Example 47d, 6-methoxy-N-(1-(4-(6-(trifluoromethyl)pyridin-2-yl)cyclohexyl)propyl)nicotinamide], under setting [2], the half-maximal inhibitory concentration (IC50) was 290 nM.

On to `CCC(NC(=O)c1ccnc(N2CCOCC2)c1)C1CCC(c2ccnc(OC)c2C(F)F)CC1` (single isomer, unassigned) [Example 26b, N-(1-((1s,4s)-4-(3-(Difluoromethyl)-2-methoxypyridin-4-yl)cyclohexyl)propyl)-2-morpholinoisonicotinamide], for which the IC50 under setting [2] was 10 nM.

Take `CCC(NC(=O)c1cnc(OC)nc1)C1CCC(c2ccnc3c(F)cc(F)cc23)CC1` (single isomer, unassigned) [Example 58b]: the IC50 under setting [2] amounted to 500 nM.

In the case of `CC[C@@H](NC(=O)c1ccc(OC)nc1)[C@H]1CC[C@@H](c2ccnc3c(F)cccc32)CC1` (relative stereo) [Example 59b, N-(1-(4-(8-fluoroquinolin-4-yl)cyclohexyl)propyl)-6-methoxynicotinamide], the half-maximal inhibitory concentration (IC50) under setting [1] is below 10 nM.

Regarding `COC[C@H](NC(=O)c1ccc(OC)nc1)[C@H]1CC[C@@H](c2ccnc(OC)c2C(F)F)CC1` (single isomer, unassigned) [Example 51a, N-(1-(4-(3-(difluoromethyl)-2-methoxypyridin-4-yl)cyclohexyl)-2-methoxyethyl)-6-methoxynicotinamide], the IC50 under setting [1] is below 10 nM.

On to `CC[C@@H](NC(=O)c1ccc(OC)nc1)[C@H]1CC[C@@H](c2ccn(C)c(=O)c2)CC1` (single isomer, unassigned) [Example 31a, 6-Methoxy-N-(1-(4-(1-methyl-2-oxo-1,2-dihydropyridin-4-yl)cyclohexyl)propyl)nicotinamide], for which the IC50 under setting [1] is above 100 nM.

On to `CCC(NC(=O)c1cnc(OC)nc1)[C@H]1CC[C@@H](c2ccnc(OC)c2C(F)F)CC1` (single isomer, unassigned) [Example 25b, N-(1-((1s,4s)-4-(3-(Difluoromethyl)-2-methoxypyridin-4-yl)cyclohexyl)propyl)-2-methoxypyrimidine-5-carboxamide], for which the IC50 under setting [2] was determined as 10 nM.

As to `COc1ccc(C(=O)NC(CC#N)[C@H]2CC[C@@H](c3ccnc4ccc(F)cc43)CC2)cn1` (mixture of isomers) [Example 54, Cis or trans-N-(2-cyano-1-((1s,4s)-4-(6-fluoroquinolin-4-yl)cyclohexyl)ethyl)-6-methoxynicotinamide], the half-inhibitory concentration (IC50) under setting [2] is 10 nM.

As to `CCC(NC(=O)c1ccc(OC)nc1)[C@H]1CC[C@@H](c2cc(C)ccn2)CC1` (single isomer, unassigned) [Example 45b, (±)-6-methoxy-N-(1-(4-(4-methylpyridin-2-yl)cyclohexyl)propyl)nicotinamide], the IC50 under setting [2] was 620 nM.

On to `CC[C@@H](NC(=O)c1ccc(OC)nc1)[C@H]1CC[C@@H](c2cnc3ccccc3c2)CC1` (single isomer, unassigned) [Example 20c, 6-Methoxy-N-(1-(4-(quinolin-3-yl)cyclohexyl)propyl)nicotinamide], for which the IC50 under setting [2] worked out at 240 nM.

Consider `CC[C@@H](NC(=O)c1ccc(OC)nc1)[C@H]1CC[C@@H](c2ccn(C)c(=O)c2)CC1` (single isomer, unassigned) [Example 31c, 6-Methoxy-N-(1-(4-(1-methyl-2-oxo-1,2-dihydropyridin-4-yl)cyclohexyl)propyl)nicotinamide], for which the IC50 under setting [2] was 190 nM.

For the molecule `CCC(NC(=O)c1ccc(OC)nc1)C1CCC(c2cccc(=O)n2C)CC1` (single isomer, unassigned) [Example 32a, 6-Methoxy-N-(1-(4-(1-methyl-6-oxo-1,6-dihydropyridin-2-yl)cyclohexyl)propyl)nicotinamide], the IC50 under setting [1] was above 100 nM.

For the molecule `CC[C@@H](NC(=O)c1ccc(OC)nc1)[C@H]1CC[C@@H](c2ccn(C)c(=O)c2)CC1` (single isomer, unassigned) [Example 31b, 6-Methoxy-N-(1-(4-(1-methyl-2-oxo-1,2-dihydropyridin-4-yl)cyclohexyl)propyl)nicotinamide], the IC50 under setting [2] came out at 970 nM.

Take `CCC(NC(=O)c1ccc(OC)nc1)C1CCC(c2ccnc3c(F)cc(F)cc23)CC1` (single isomer, unassigned) [Example 57d]: the IC50 under setting [2] came to 40 nM.

In the case of `CC[C@@H](NC(=O)c1ccc(OC)nc1)[C@H]1CC[C@@H](c2cnc3ccccc3c2)CC1` (single isomer, unassigned) [Example 20b, 6-Methoxy-N-(1-(4-(quinolin-3-yl)cyclohexyl)propyl)nicotinamide], the half-maximal inhibitory concentration (IC50) under setting [1] is above 100 nM.

Turning to `CCC(NC(=O)c1ccc(OC)nc1)[C@H]1CC[C@@H](c2nccc(C)n2)CC1` (single isomer, unassigned) [Example 49b, (±)-6-methoxy-N-(1-(4-(4-methylpyrimidin-2-yl)cyclohexyl)propyl)nicotinamide], the IC50 under setting [2] was found to be 30 nM.

For `COc1ccc(C(=O)NC(C)C2(O)CCC(c3ccnc4ccc(F)cc34)CC2)cn1` (single isomer, unassigned) [Example 62a, N-(1-((1r,4r)-4-(6-fluoroquinolin-4-yl)-1-hydroxycyclohexyl)ethyl)-6-methoxynicotinamide], under setting [2], the IC50 came out at 70 nM.

Consider `CC[C@@H](NC(=O)c1ccc(OC)nc1)[C@H]1CC[C@@H](c2ccnc(F)c2C)CC1` (single isomer, unassigned) [Example 56c, N-(1-(4-(2-fluoro-3-methylpyridin-4-yl)cyclohexyl)propyl)-6-methoxynicotinamide], for which, under setting [2], the concentration for half-maximal inhibition (IC50) was found to be 600 nM.

As for `CCC(NC(=O)c1ccc(OC)nc1)C1CCC(c2cccc(C)n2)CC1` (single isomer, unassigned) [Example 46b, 6-methoxy-N-(1-(4-(6-methylpyridin-2-yl)cyclohexyl)propyl)nicotinamide], the half-inhibitory concentration (IC50) under setting [1] is above 100 nM.
